The source of these data is patent publication US11795457B2, “Compositions and methods for treatment of Friedreich's Ataxia” (The Board of Regents of The University of Texas System, priority 2014, dated 2023).

Like-named read-outs stand apart in the source and are kept apart here. Oligonucleotides are written 5' to 3', each unit as a sugar letter and its base; * is a phosphorothioate linkage, no mark a phosphodiester; rarer units and linkages stand in square brackets, end groups in braces. Plain capitals give the bases only. l = locked nucleic acid (LNA); d = 2'-deoxy (DNA)

The test system of one data set is FXN protein. Kind of data set: FXN protein expression by western blot in FRDA patient-derived fibroblast cells. Type of data set: cell-based, human. As to conditions: GM03816 cells; for FXN protein expression, LNAs: 12.5 nM, day 4 (FIGS. 4B-E). The method, then:
(§1) Tissue culture and transfection of synthetic nucleic acids. Fibroblast cells (Coriell Institute, GM03816 and GM02513) were cultured in minimum essential medium (MEM) supplemented with 10% FBS and 1% NEAA. All cells were grown at 37° C. in 5% Co2. Lipofectamine RNAiMAX (Invitrogen) was used to transfect siRNAs or LNA following the manufacturer's recommended protocol in OptiMEM low serum medium (Invitrogen). Growth media was changed to full medium after 24 h. Transfected cells were harvested 72 h after transfection for RNA extraction and qPCR analyses, and 96 h after transfection for western blot analysis. Sequences of siRNAs and RNAs used in these studies are listed in Table S1 and Table S2, respectively.
Western blot analysis. Cell extracts were prepared using lysis buffer supplemented with 1% Protease Inhibitor Cocktail Set I (Calbiochem) as described previously (Punga & Buhler, 2010). Protein was separated on 4-20% gradient or 15% SDS-PAGE TGX pre-cast gels (BioRad). After gel electrophoresis, proteins were transferred to nitrocellulose membrane (Hybond-C Extra, GE Healthcare Life Sciences) at 100 V for 45-60 min. Membranes were blocked for 30 min at room temperature with 5% milk protein in PBS+0.05% TWEEN-20 (PBST).
Blocked membranes were incubated with the primary antibodies at 4° C. in PBST and 5% milk with rocking overnight: anti-FXN at 1:300 (Abcam, ab110328), anti-tubulin at 1:6000-10000 (Sigma-Aldrich, T5201). After primary antibody incubation, membranes were washed 3 times for 5 min at room temperature with PBST then incubated for 30-45 min at room temperature with HRP-conjugated anti-mouse (Jackson Laboratories, 715-035-150) in PBST+5% milk. Membranes were washed again 3× for 15 min in PBST at room temperature, then protein bands visualized using SuperSignal West Pico Chemiluminescent Substrate (Thermo Scientific). For quantification of protein levels from Western blots of cellular fractions, films were scanned and bands quantified using ImageJ.
HDAC inhibitor and mRNA stability assay. Histone deacetylase inhibitor BML-210 (Abcam) (5 μM) was applied to FRDA fibroblast cells (GM03816) by following the procedure described in Herman et al (2006)^27. Cells were collected for qPCR and Western blot analyses as mentioned above. For mRNA stability assay, cells were transfected with siGAA or CM as above, and 5 μg/mL actinomycin D (Sigma) was added with fresh media 3 day after transfection, and cells were collected at the indicated time points for RNA extraction and qPCR analysis.
(Immunoblotting shows a protein as a band on a membrane.)

The nature of the next data set: Tm of siRNA duplex. It counts as physicochemical.
The test system of data set [1] is interferon responsive genes. Kind of data set: qPCR of interferon responsive genes (off-target). Type of data set: cell-based, human. As to conditions: GM03816 cells, 25 nM, 3 days after transfection, compared with CM control. As for the experimental part: as §1
Quantitative PCR. Identical volumes of RNA (representing approximately the same number of cells and ranging from 1-2 μg of RNA) were treated with 2 units of DNase I (Worthington) in DNase I buffer (10 mM Tris-HCl, pH 7.0, 10 mM NaCl, 2 mM MgCl2, 0.5 mM CaCl2)) for 15 min at room temperature to degrade any genomic DNA contamination. Afterwards, DNase I heat-inactivated at 75° C. for 10 min. Treated RNAs were reverse-transcribed using the High Capacity cDNA Reverse Transcription Kit (Applied Biosystems). Quantitative PCR (qPCR) was performed using SYBR Supermix (Biorad) with ˜50 ng of cDNA as template. Data were normalized relative to measured HPRT levels.
For orientation: Quantitative PCR measures a nucleic acid by following its amplification.

For a further data set, the system named is FXN. Kind of data set: FXN expression in FRDA patient-derived cells, mRNA or protein not specified. Type of data set: cell-based, human. As to conditions: GM03816 cells, 25 nM (FIG. 3B). As for the experimental part:
as §1

For a further data set, the system named is frataxin protein. As to conditions: patients, daily oral administration, cited from earlier work.
For another data set, the system named is FXN mRNA. Kind of data set: FXN mRNA expression by quantitative PCR in FRDA patient-derived fibroblast cells. Type of data set: cell-based, human. The conditions noted are these: GM03816 cells, 5 μM, averaged quadruplicate experiments (FIG. 2B). As for the experimental part: Tissue culture and transfection of synthetic nucleic acids. Fibroblast cells (Coriell Institute, GM03816 and GM02513) were cultured in minimum essential medium (MEM) supplemented with 10% FBS and 1% NEAA. All cells were grown at 37° C. in 5% Co2. Lipofectamine RNAiMAX (Invitrogen) was used to transfect siRNAs or LNA following the manufacturer's recommended protocol in OptiMEM low serum medium (Invitrogen). Growth media was changed to full medium after 24 h. Transfected cells were harvested 72 h after transfection for RNA extraction and qPCR analyses, and 96 h after transfection for western blot analysis. Sequences of siRNAs and RNAs used in these studies are listed in Table S1 and Table S2, respectively. Quantitative PCR. Identical volumes of RNA (representing approximately the same number of cells and ranging from 1-2 μg of RNA) were treated with 2 units of DNase I (Worthington) in DNase I buffer (10 mM Tris-HCl, pH 7.0, 10 mM NaCl, 2 mM MgCl2, 0.5 mM CaCl2)) for 15 min at room temperature to degrade any genomic DNA contamination. Afterwards, DNase I heat-inactivated at 75° C. for 10 min. Treated RNAs were reverse-transcribed using the High Capacity cDNA Reverse Transcription Kit (Applied Biosystems). Quantitative PCR (qPCR) was performed using SYBR Supermix (Biorad) with ˜50 ng of cDNA as template. Data were normalized relative to measured HPRT levels. […]

Data set [2] relates to histone H3 and H4 acetylation, FXN mRNA and protein. As to conditions: lymphoid cells or primary lymphocytes; cited from earlier work.

With “PS-LNA11: LNA with PS backbone complementary to antisense RNA, GAAGAAGAAGAAGAAGAAG (SEQ ID NO: 33) (dG*lA*lA*dG*lA*lA*dG*lA*lA*dG*lA*lA*dG*lA*lA*dG*lA*lA*dG)”, the “FXN protein expression, LNAs” value in the data set on FXN protein is given as “inert”.
With “scramble: duplex RNA in which the sequences of siGAA and siAAG are mixed: ss GAGAAAGAGAAAAGGAAAGdTdT (SEQ ID NO: 15), as SEQ ID NO: 16 (sense GAGAAAGAGAAAAGGAAAGNN; antisense CUUUCCUUUUCUCUUUCUCNN; dTdT overhangs; modified_base (20)..(21) n = thymidine; (20)..(21) n is a, c, g, t or u) [reference compound]”, the Tm for duplex in the data set “Tm of siRNA duplex” is 66.13 ^+C.
As for “siGAA: duplex RNA: ss GAAGAAGAAGAAGAAGAAGdTdT (SEQ ID NO: 1), as CUUCUUCUUCUUCUUCUUCdTdT (SEQ ID NO: 9) (sense GAAGAAGAAGAAGAAGAAGNN; antisense CUUCUUCUUCUUCUUCUUCNN; dTdT overhangs; modified_base (20)..(21) n = thymidine; (20)..(21) n is a, c, g, t or u)”, the Tm for duplex in “Tm of siRNA duplex” is on record as 65.64 ^+C. The “FXN protein expression (dose response profile)” value in the data set with FXN protein (day 4 (FIG. 1F)) is “upregulation of FXN protein expression”. Besides, in data set [1], the “mRNA expression of interferon responsive genes” value is recorded as “does not induce expression of interferon responsive genes”.
Turning to “siGAA9,10mm: anti-GAA duplex RNA with central mismatches on both strands: ss GAAGAAGAUCAAGAAGAAGdTdT (SEQ ID NO: 19), as CUUCUUCUUAGUCUUCUUCdTdT (SEQ ID NO: 20) (sense GAAGAAGAUCAAGAAGAAGNN; antisense CUUCUUCUUAGUCUUCUUCDTDT; dTdT overhangs; modified_base (20)..(21) n = thymidine; (20)..(21) n is a, c, g, t or u)”, the Tm for duplex in the data set “Tm of siRNA duplex” is 54.4 ^+C. For the same compound, the “Activation of FXN expression by duplex with central mismatches” value in the data set with FXN (listed as siGAA 9.10 mm) is listed as “activates FXN expression at a level similar to the analogous fully complementary duplex RNA”; with FXN (listed as siGAA9.10 mm), “activated FXN expression as well as fully complementary duplexes siGAA or siAAG”.
With “siAAG5mm: similar to siAAG but has five mismatches: ss AACAATAATACGCAGAAGAdTdT (SEQ ID NO: 17), as SEQ ID NO: 18 (sense AACAATAATACGCAGAAGANN; antisense UCUUCUGCGUAUUAUUGUUNN; dTdT overhangs; modified_base (20)..(21) n = thymidine; (20)..(21) n is a, c, g, t or u) [reference compound]”, the Tm for duplex in “Tm of siRNA duplex” is listed as 63.24 ^+C.
Consider `NC(=O)c1cccnc1` [nicotinamide], for which the “Increase of frataxin protein concentration” value is 1.5 times with frataxin protein (3.8 g) and “doubling” in the data set on frataxin protein (7-5 g).
Regarding `Nc1ccccc1NC(=O)CCCCCCC(=O)Nc1ccccc1` [BML210], the “FXN mRNA levels” value with FXN mRNA is “did not reveal a significant increase”. In addition, the “Acetylation of histone H3 and H4 and FXN mRNA and protein” value in data set [2] is “increased acetylation of histone H3 and H4 leading to upregulation of FXN mRNA and protein”. Besides, in the data set with FXN protein (5 μM, averaged quadruplicate experiments (FIG. 2C)), the FXN protein levels entry was “did not reveal a significant increase”.
Take “PS-LNA12: LNA with PS backbone complementary to antisense RNA, AAGAAGAAGAAGAAGAAGA (SEQ ID NO: 34) (dA*dA*lG*dA*dA*lG*dA*dA*lG*dA*dA*lG*dA*dA*lG*dA*dA*lG*dA)”: the “FXN protein expression, LNAs” value in the data set on FXN protein was “inert”.
For the compound “siExon2: duplex siRNA that targets FXN exon: ss GAGUGUCUAUUUGAUGAAUdTdT (SEQ ID NO: 13), as SEQ ID NO: 14 (sense GAGUGUCUAUUUGAUGAAUNN; antisense AUUCAUCAAAUAGACACUCNN; dTdT overhangs; modified_base (20)..(21) n = thymidine; (20)..(21) n is a, c, g, t or u) [reference compound]”, in the data set “Tm of siRNA duplex”, the Tm for duplex is listed as 64.53 ^+C.
Same read-out and setting: then “siAAG: duplex RNA: ss AAGAAGAAGAAGAAGAAGAdTdT (SEQ ID NO: 2), as UCUUCUUCUUCUUCUUCUUdTdT (SEQ ID NO: 10) (sense AAGAAGAAGAAGAAGAAGANN; antisense UCUUCUUCUUCUUCUUCUUNN; dTdT overhangs; modified_base (20)..(21) n = thymidine; (20)..(21) n is a, c, g, t or u)”, with 64.67 ^+C; and “siAGA: duplex RNA: ss AGAAGAAGAAGAAGAAGAAdTdT (SEQ ID NO: 11), as UUCUUCUUCUUCUUCUUCUdTdT (SEQ ID NO: 12) (sense AGAAGAAGAAGAAGAAGAANN; antisense UUCUUCUUCUUCUUCUUCUNN; dTdT overhangs; modified_base (20)..(21) n = thymidine; (20)..(21) n is a, c, g, t or u)”, with 64.3 ^+C.
Regarding “PS-LNA13: LNA with PS backbone complementary to antisense RNA, AGAAGAAGAAGAAGAAGAA (SEQ ID NO: 35) (lA*dG*lA*lA*dG*lA*lA*dG*lA*lA*dG*lA*lA*dG*lA*lA*dG*lA*lA)”, the “FXN protein expression, LNAs” value in the data set on FXN protein is listed as “inert”.
For the compound “siExon3: positive control for transfection efficiency targeting exon 3 of FXN: ss GACCACCUAUGAAAGACUAdTdT (SEQ ID NO: 21), as SEQ ID NO: 22 (sense GACCACCUAUGAAAGACUANN; antisense UAGUCUUUCAUAGGUGGUCNN; dTdT overhangs; modified_base (20)..(21) n = thymidine; (20)..(21) n is a, c, g, t or u) [reference compound]”, the Tm for duplex in the data set “Tm of siRNA duplex” is recorded as 73.65 ^+C.
